According to the NIST ThermoML archive (doi:10.1021/je020130i):
Numbers after ± are expanded uncertainties.

settings: 363.15 K; Liquid

vapor or sublimation pressure | Compound
131.21 ± 1.7 kPa | CC#N [acetonitrile]
188.05 ± 2.4 kPa | CCCCCC [hexane]
137.28 ± 1.8 kPa | c1ccccc1 [benzene]
2.1 ± 0.09 kPa [middle of 4 runs] | CNC=O [N-methylformamide]

Compound | vapor or sublimation pressure
Clc1ccccc1 [chlorobenzene] | 28.33 ± 0.42 kPa
